Laboratory results reported in ChEMBL document CHEMBL3526128, “Covalent modification and time-dependent inhibition of human CYP2E1 by the meta-isomer of acetaminophen” (Drug Metab Dispos, 2012).

How the values were obtained:
Assay type in all cases: ADME; call rule not given here
CYP2E1 [1] = biological target: T1, CYP2E1 (Homo sapiens, UniProt P05181); assay: Inhibition of human CYP2E1 assessed as chlorzoxazone 6-hydroxylase activity at 2.5 mM after 72 hrs preincubation by HPLC analysis (RVb = 100%); set-up: scale not given: the % may be the effect or the level left; settings: probe chlorzoxazone (6-hydroxylation), read-out: Activity
T1 sequence (P05181 whole entry): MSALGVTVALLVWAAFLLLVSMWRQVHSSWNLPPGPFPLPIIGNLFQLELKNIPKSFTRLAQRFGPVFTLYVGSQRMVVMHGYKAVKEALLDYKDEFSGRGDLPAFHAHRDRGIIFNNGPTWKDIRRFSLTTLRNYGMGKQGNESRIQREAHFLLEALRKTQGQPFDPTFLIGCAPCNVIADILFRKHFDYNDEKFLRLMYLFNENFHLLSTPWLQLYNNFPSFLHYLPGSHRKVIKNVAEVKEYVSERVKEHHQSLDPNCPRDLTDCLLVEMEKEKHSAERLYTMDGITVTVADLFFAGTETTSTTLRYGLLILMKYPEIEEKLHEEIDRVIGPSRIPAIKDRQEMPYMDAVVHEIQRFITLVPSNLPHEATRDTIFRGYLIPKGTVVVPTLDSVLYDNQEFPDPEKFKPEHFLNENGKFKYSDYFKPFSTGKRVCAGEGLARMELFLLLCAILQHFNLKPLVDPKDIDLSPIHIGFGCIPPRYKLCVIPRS

CYP2E1 [2] = biological target: T1, CYP2E1; assay: Inhibition of human CYP2E1 assessed as chlorzoxazone 6-hydroxylase activity at 20 mM after 72 hrs preincubation by HPLC analysis in presence of 1 mM NADPH (RVb = 100%); set-up: scale not given: the % may be the effect or the level left; settings: probe chlorzoxazone (6-hydroxylation), read-out: Activity
Cytochrome P450 2E1 [3] = biological target: T2, Cytochrome P450 2E1 (Homo sapiens, UniProt P05181); assay: Inhibition of human CYP2E1-mediated chlorzoxazone hydroxylase activity at 2.5 to 40 mM after 72 hrs by LC-MS/MS analysis in presence of 1 mM NADPH; settings: recombinant enzyme, 40000 µM
T2 sequence (P05181 whole entry): as above

CYP2E1 [4] = biological target: T1, CYP2E1; assay: Inhibition of human CYP2E1 assessed as chlorzoxazone 6-hydroxylase activity at 20 mM after 72 hrs preincubation by HPLC analysis (RVb = 100%); set-up: scale not given: the % may be the effect or the level left; settings: probe chlorzoxazone (6-hydroxylation), read-out: Activity
CYP2E1 [5] = biological target: T1, CYP2E1; assay: (§1) Inhibition of human CYP2E1 assessed as chlorzoxazone 6-hydroxylase activity by HPLC analysis; settings: human, probe chlorzoxazone (6-hydroxylation)
Cytochrome P450 2E1 [6] = biological target: T2, Cytochrome P450 2E1; assay: as §1
CYP2E1 [7] = biological target: T1, CYP2E1; assay: Inhibition of human CYP2E1 assessed as chlorzoxazone 6-hydroxylase activity at 20 mM after 72 hrs preincubation by HPLC analysis in presence of 1 mM NADPH and 5 mM glutathione (RVb = 100%); set-up: scale not given: the % may be the effect or the level left; settings: probe chlorzoxazone (6-hydroxylation), read-out: Activity
CYP2E1 [8] = biological target: T1, CYP2E1; assay: Inhibition of human CYP2E1 assessed as chlorzoxazone 6-hydroxylase activity at 40 mM after 72 hrs preincubation by HPLC analysis (RVb = 100%); set-up: scale not given: the % may be the effect or the level left; settings: probe chlorzoxazone (6-hydroxylation), read-out: Activity
Cytochrome P450 2E1 [9] = biological target: T2, Cytochrome P450 2E1; assay: Inhibition of human CYP2E1-mediated chlorzoxazone hydroxylase activity at 2.5 to 40 mM by LC-MS/MS analysis; settings: recombinant enzyme, 40000 µM, TDE = time-dependent effect
CYP2E1 [10] = biological target: T1, CYP2E1; assay: Inhibition of human CYP2E1 assessed as chlorzoxazone 6-hydroxylase activity at 40 mM after 72 hrs preincubation by HPLC analysis in presence of 1 mM NADPH (RVb = 100%); set-up: scale not given: the % may be the effect or the level left; settings: probe chlorzoxazone (6-hydroxylation), read-out: Activity

activity at 72 h, 2500 µM (CYP2E1 [1])	activity at 72 h, 20000 µM (CYP2E1 [2])	inhibition (INH) (Cytochrome P450 2E1 [3])	activity at 72 h, 20000 µM (CYP2E1 [4])	kinact (CYP2E1 [5])	Ki (Cytochrome P450 2E1 [6])	activity at 72 h, 20000 µM (CYP2E1 [7])	activity at 72 h, 40000 µM (CYP2E1 [8])	inhibition (INH) (Cytochrome P450 2E1 [9])	activity at 72 h, 40000 µM (CYP2E1 [10])	Structure (SMILES)
< 1%	–	–	–	–	–	–	–	–	–	Nn1nnc2ccccc21
97.6%	64.8%	Active	89.3%	0.000133 s⁻¹	9.5 mM	91.3%	65.7%	tde	43.7%	CC(=O)Nc1cccc(O)c1 [METACETAMOL]
